19 compounds from patent EP3057951B1, “METHYLENE LINKED QUINOLINYL MODULATORS OF ROR-GAMMA-T” (Janssen Pharmaceutica NV, priority 2013, dated 2015) can be followed below.

“And” between values parts separate entries of the source, which are not always exact repeats. Equal values may be shown once. Where a name gives a salt, the structure may show the parent alone. Read-outs that look alike come from different tables or passages of the source. Where only a bound is given, the exact number is not on record here.

Assay [1] deals with T1, wild type human RORγt LBD (Homo sapiens, UniProt P51449).
T1 construct: expressed in transfected cells; host or cells: HEK293T
T1 sequence (P51449 258-518): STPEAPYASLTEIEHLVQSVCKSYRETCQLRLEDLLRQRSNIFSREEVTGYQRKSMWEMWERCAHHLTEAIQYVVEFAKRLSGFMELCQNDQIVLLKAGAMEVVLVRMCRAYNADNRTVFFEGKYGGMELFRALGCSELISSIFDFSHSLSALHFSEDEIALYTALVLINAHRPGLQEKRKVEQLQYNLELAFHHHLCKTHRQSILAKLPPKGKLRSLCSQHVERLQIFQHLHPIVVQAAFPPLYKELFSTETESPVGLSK
Put plainly: RORγt (LBD) Reporter Assay (GAL4-luciferase, HEK293T cells). In kind it is cell-based. The note with it: for RORγt (LBD) Reporter Assay, % inhibition @ 6 µM: 6 µM compound concentration; for inhibition at 6 µM: HEK-293T, read-out: RORγt (LBD) Reporter Assay, % inhibition @ 6 µM, 6 µM compound concentration.

Assay [2] concerns the target T2, wild type human RORγt ligand binding domain (RORyt LBD) (Homo sapiens, UniProt P51449).
T2 construct: His-tag (N); TurboTEV protease cleavage site (ENLYFQG) (N); made in house; host or cells: E. coli (pHIS1, modified pET vector)
T2 sequence (P51449 258-518): T1 sequence (P51449 258-518)
As to the kind of experiment: RORγt ThermoFluor assay (thermal shift, binding affinity KD). On the technique in general: In DSF a fluorescence change marks the thermal transition of the protein.

The mark [3] stands for this setting: HEK293T cells, value after the comma with ∼, > or < could not be included in the average.

Consider `COc1nc2ccc(C(O)(c3ccc(F)cc3)c3cccnc3)cc2c(Cl)c1Cc1ccc(-n2cccn2)cc1` (single isomer, unassigned) [Example 158c, (3-(4-(1H-Pyrazol-1-yl)benzyl)-4-chloro-2-methoxyquinolin-6-yl)(4-fluorophenyl)(pyridin-3-yl)methanol], for which, in assay [1] (HEK293T cells), the “RORγt (LBD) Reporter Assay, % inhibition @ 6 µM” value (from here on “RORγt … % inhibition @ 6 µM”) was 100% and the IC50 was found to be 130 nM. In assay [2], the Kd was 7.7 nM.
As for `CCc1nc2ccc(C(O)(c3cnnn3C)c3cnc(C)n3C)cc2c(Cl)c1Cc1ccc(C(F)(F)F)cc1` (single isomer, unassigned) [Example 25b, (4-Chloro-2-ethyl-3-(4-(trifluoromethyl)benzyl)quinolin-6-yl)(1,2-dimethyl-1H-imidazol-5-yl)(1-methyl-1H-1,2,3-triazol-5-yl)methanol], in assay [1] (setting [3]), the IC50 is 1.9 nM and < 3 nM. Also, the inhibition at 6 µM in assay [1] came out at 100%. Also, the Kd in assay [2] amounted to 0.01 nM.
Turning to `Cc1cc(C(O)(c2ccc(Cl)cc2)c2cncn2C)cc2c(Cl)c(Cc3ccc(-n4cccn4)cc3)c(N3CCC3)nc12` (single isomer, unassigned) [Example 136b, {2-Azetidin-1-yl-4-chloro-8-methyl-3-[4-(1H-pyrazol-1-yl)benzyl]quinolin-6-yl}(4-chlorophenyl)(1-methyl-1H-imidazol-5-yl)methanol], in assay [1] (HEK293T cells), the IC50 amounted to 1000 nM and the inhibition at 6 µM came to 83%. Besides, the Kd in assay [2] is 2300 nM.
For the compound `COc1nc2ccc(C(O)(c3cc(C)nc(C)c3)c3cnnn3C)cc2c(Cl)c1Cc1ccc(C(F)(F)F)cc1` (single isomer, unassigned) [Example 84b, (4-Chloro-2-methoxy-3-(4-(trifluoromethyl)benzyl)quinolin-6-yl)(2,6-dimethylpyridin-4-yl)(1-methyl-1H-1,2,3-triazol-5-yl)methanol], the IC50 in assay [1] (setting [3]) was 210 nM. Further, the inhibition at 6 µM in assay [1] stood at 103%. In assay [2], the dissociation constant Kd came out at 180 nM.
As to `Cc1cc(C(O)(c2ccc(Cl)cc2)c2cncn2C)cc2c(Cl)c(Cc3ccc(-n4cccn4)cc3)c(S(C)(=O)=O)nc12` (stereo not drawn) [Example 142, {4-Chloro-8-methyl-2-(methylsulfonyl)-3-[4-(1H-pyrazol-1-yl)benzyl]quinolin-6-yl}(4-chlorophenyl)(1-methyl-1H-imidazol-5-yl)methanol], in assay [1] (HEK293T cells), the IC50 was determined as 1600 nM and the inhibition at 6 µM amounted to 87%. Also, the Kd in assay [2] is 1500 nM.
Take `Cc1ccc(C(O)(c2ccc3nc(Cl)c(Cc4ccc(C(F)(F)F)cc4)c(NC4CC4)c3c2)c2cnnn2C)c(C)n1` (single isomer, unassigned) [Example 144c, {2-Chloro-4-(cyclopropylamino)-3-[4-(trifluoromethyl)benzyl]quinolin-6-yl}(2,6-dimethylpyridin-3-yl)(1-methyl-1H-1,2,3-triazol-5-yl)methanol]: in assay [1] (HEK293T cells), the “RORγt … % inhibition @ 6 µM” value is 99% and 34 nM corresponded to half-maximal inhibition (IC50). In addition, the Kd in assay [2] stood at 2.5 nM.
For the compound `Cn1cncc1C(O)(c1ccc(C(F)(F)F)nc1)c1ccc2nc(C(F)(F)F)c(Cc3ccccc3)c(Cl)c2c1` (stereo not drawn) [Example 105, (3-Benzyl-4-chloro-2-(trifluoromethyl)quinolin-6-yl)(1-methyl-1H-imidazol-5-yl)(6-(trifluoromethyl)pyridin-3-yl)methanol•TFA], in assay [1] (setting [3]), the IC50 is > 6000 nM. The inhibition at 6 µM in assay [1] stood at 38%. Further, the Kd in assay [2] worked out at 5.6 nM.
In the case of `Cc1ccc(C(O)(c2ccc3nc(Cl)c(Cc4ccc(C(F)(F)F)cc4)c(NC4CC4)c3c2)c2cnnn2C)c(C)n1` (single isomer, unassigned) [Example 144b, {2-Chloro-4-(cyclopropylamino)-3-[4-(trifluoromethyl)benzyl]quinolin-6-yl}(2,6-dimethylpyridin-3-yl)(1-methyl-1H-1,2,3-triazol-5-yl)methanol], in assay [1] (HEK293T cells), the “RORγt … % inhibition @ 6 µM” value is on record as 69% and the IC50 was ~3700 nM. The Kd in assay [2] was determined as 2300 nM.
As for `Cn1cncc1C(O)(c1ccc(C(F)(F)F)nc1)c1ccc2nc(N3CC(O)C3)c(Cc3ccc(-n4cccn4)cc3)c(Cl)c2c1` (single isomer, unassigned) [Example 134c, 1-(4-Chloro-6-{hydroxy(1-methyl-1H-imidazol-5-yl)[6-(trifluoromethyl)pyridin-3-yl]methyl}-3-[4-(1H-pyrazol-1-yl)benzyl]quinolin-2-yl)azetidin-3-ol], in assay [1] (HEK293T cells), the “RORγt … % inhibition @ 6 µM” value amounted to 96% and the IC50 was 1100 nM. Besides, the dissociation constant (Kd) in assay [2] is 1200 nM.
Turning to `Cc1ccc(C(O)(c2ccc3nc(NC4CC4)c(Cc4ccc(C(F)(F)F)cc4)c(Cl)c3c2)c2cnnn2C)c(C)n1` (single isomer, unassigned) [Example 143b, {4-Chloro-2-(cyclopropylamino)-3-[4-(trifluoromethyl)benzyl]quinolin-6-yl}(2,6-dimethylpyridin-3-yl)(1-methyl-1H-1,2,3-triazol-5-yl)methanol], in assay [1] (HEK293T cells), the IC50 turned out to be 1600 nM and the inhibition at 6 µM stood at 93%. Moreover, in assay [2], the Kd amounted to 1700 nM.
Compound `COc1nc2ccc(C(O)(c3ccc(Cl)cc3)c3cncn3C)cc2c(C#N)c1Cc1ccc(C(F)(F)F)cc1` (racemic) [Example 55a, 6-((4-Chlorophenyl)(hydroxy)(1-methyl-1H-imidazol-5-yl)methyl)-2-methoxy-3-(4-(trifluoromethyl)benzyl)quinoline-4-carbonitrile] yielded an IC50 in assay [1] (setting [3]) of 32 nM. Moreover, the inhibition at 6 µM in assay [1] turned out to be 104%. Moreover, the Kd in assay [2] came out at 11 nM.
For `COC1CN(c2nc3ccc(C(O)(c4ccc(C(F)(F)F)nc4)c4cncn4C)cc3c(Cl)c2Cc2ccc(-n3cccn3)cc2)C1` (single isomer, unassigned) [Example 133c, {4-Chloro-2-(3-methoxyazetidin-1-yl)-3-[4-(1H-pyrazol-1-yl)benzyl]quinolin-6-yl}(1-methyl-1H-imidazol-5-yl)[6-(trifluoromethyl)pyridin-3-yl]methanol], in assay [1] (HEK293T cells), the “RORγt … % inhibition @ 6 µM” value was found to be 82% and the concentration for half-maximal inhibition (IC50) stood at 1200 nM. Further, the Kd in assay [2] was 12000 nM.
Take `Cn1cncc1C(O)(c1ccc(C(F)(F)F)nc1)c1ccc2nc(N3CCCC3)c(Cc3ccc(-n4cccn4)cc3)c(Cl)c2c1` (single isomer, unassigned) [Example 145c, {4-Chloro-3-[4-(1H-pyrazol-1-yl)benzyl]-2-pyrrolidin-1-ylquinolin-6-yl}(1-methyl-1H-imidazol-5-yl)[6-(trifluoromethyl)pyridin-3-yl]methanol]: in assay [1] (HEK293T cells), the “RORγt … % inhibition @ 6 µM” value is 95% and half-maximal inhibition (IC50) required 780 nM. Besides, the Kd in assay [2] was 810 nM.
In turn, `COc1nc2ccc(C(O)(c3ccc(C)nc3C)c3cnnn3C)cc2c(Cl)c1Cc1ccc(-n2cncn2)cc1` (single isomer, unassigned) [Example 22b, (3-(4-(1H-1,2,4-Triazol-1-yl)benzyl)-4-chloro-2-methoxyquinolin-6-yl)(2,6-dimethylpyridin-3-yl)(1-methyl-1H-1,2,3-triazol-5-yl)methanol] returned an IC50 in assay [1] (setting [3]) of 790 nM. Moreover, the inhibition at 6 µM in assay [1] was determined as 97%. Further, in assay [2], the Kd amounted to 480 nM.
As to `COc1c(Cc2ccccc2)c(C(F)(F)F)nc2ccc(C(O)(c3ccccn3)c3cncn3C)cc12` (single isomer, unassigned) [Example 98b, (3-Benzyl-4-methoxy-2-(trifluoromethyl)quinolin-6-yl)(1-methyl-1H-imidazol-5-yl)(pyridin-2-yl)methanol], the “RORγt … % inhibition @ 6 µM” value in assay [1] turned out to be 74%. In assay [1] (setting [3]), the IC50 was ~5000 nM. Further, in assay [2], the Kd amounted to 2200 nM.
In turn, `Cn1cncc1C(O)(c1ccc2nc(C(F)(F)F)c(Cc3ccccc3)c(Cl)c2c1)c1ccccn1` (stereo not drawn) [Example 97, (3-Benzyl-4-chloro-2-(trifluoromethyl)quinolin-6-yl)(1-methyl-1H-imidazol-5-yl)(pyridin-2-yl)methanol•TFA] registered an IC50 in assay [1] (setting [3]) of 200 nM. The inhibition at 6 µM in assay [1] was found to be 96%. Besides, the equilibrium dissociation constant (Kd) in assay [2] stood at 67 nM.
For `Cc1ccc(C(O)(c2ccc3nc(Cl)c(Cc4ccc(C(F)(F)F)cc4)c(Cl)c3c2)c2cnnn2C)c(C)n1` (stereo not drawn) [Example 139], in assay [1] (HEK293T cells), the IC50 was found to be 20 nM and the inhibition at 6 µM was found to be 98%. Besides, the Kd in assay [2] is 0.14 nM.
For the compound `COc1nc2ccc(C(O)(c3ccc(C)nc3C)c3cncn3C)cc2c(Cl)c1Cc1ccc(C(F)(F)F)cc1` (single isomer, unassigned) [Example 88c, (4-Chloro-2-methoxy-3-(4-(trifluoromethyl)benzyl)quinolin-6-yl)(2,6-dimethylpyridin-3-yl)(1-methyl-1H-imidazol-5-yl)methanol], the “RORγt … % inhibition @ 6 µM” value in assay [1] turned out to be 98%. In assay [1] (setting [3]), the IC50 is 10 nM. Also, the Kd in assay [2] was 0.08 nM.
For `COc1nc2ccc(C(O)(c3cnnn3C)c3cnc(C)n3C)cc2c(C#N)c1Cc1ccc(F)cc1` (racemic) [Example 66a, 6-((1,2-Dimethyl-1H-imidazol-5-yl)(hydroxy)(1-methyl-1H-1,2,3-triazol-5-yl)methyl)-3-(4-fluorobenzyl)-2-methoxyquinoline4-carbonitrile], in assay [1] (setting [3]), half-maximal inhibition (IC50) was put at 8.2 nM. Further, the inhibition at 6 µM in assay [1] turned out to be 90%. Besides, in assay [2], the dissociation constant Kd amounted to 0.59 nM.

Usually IC50 stands for the midpoint of a concentration-inhibition curve. Lower therefore signals inhibition by little substance. Broadly, the Kd is the equilibrium constant for the complex coming apart.
